Measured values as given in patent US20080220056A1, “Treatment for liver disease” (UNIVERSITY OF SOUTHAMPTON, priority 2002, published 2008).
Square brackets hold non-standard residues; d marks the D form. Peptide text beside a SMILES is read from it. * marks the point of attachment. Nle = CCCC[C@H](N)C(=O)O; Cbz = O=C(OCc1ccccc1)*; CH2F = FC*

How the values were obtained:
Format in all cases: cell-based
[1] = test system: NF-kB DNA binding activity; test: Electromobility shift assay for NF-kB DNA binding activity in rat hepatic stellate cells; conditions: activated rat HSC; for TNF-α-inducible NF-kB DNA binding activity: 10 ng/mL TNF-α, same concentrations as for constitutive activity; for constitutive NF-kB DNA binding activity: gliotoxin 1.5 μmol/L, N-acetyl cysteine 5 mM, calpain inhibitor 1 50 μM, dexamethasone 0.5 μm, pentoxyfilline 3.6 mM
Method: Crude high salt extractable nuclear protein was prepared from activated hepatic stellate cells for analysis of NF-kB DNA binding activity essentially as described (Elsharkawy et al., supra), aliquoted and stored at −80° C. until required. Extract protein concentrations were determined using the Lowry colorimetric assay (Lowry et al., supra) with bovine serum albumin as standard. A double stranded 5′ end labeled radiolabeled oligonucleotide [sense 5′-[…]-[…] (SEQ ID NO:1)] containing a consensus NF-kB DNA binding site as underlined (Baldwin et al., Annu. Rev. Immunol., (1996) 14:649-681) was used to determine NFkB DNA binding activity in crude nuclear extracts (Elsharkawy et al., supra).
The effect of gliotoxin on NF-kB activity in hepatic stellate cells was investigated. Culture-activated (14-day) rat hepatic stellate cells were incubated in the presence or absence of 10 ng/mL TNF-α fifteen minutes after addition of:
After a further 30 minutes, and before any significant morphologic changes, cells were washed with ice-cooled PBS, nuclear extracts prepared, and NF-kB DNA binding activity assessed by gel shift analysis. […] Each lane contained […] of protein and the results were the same for at least three separate experiments.

[2] = test system: rat hepatic stellate cells; test: Morphology and detachment of culture-activated rat hepatic stellate cells (light microscopy); conditions: rat HSC; for effect on morphologic alterations / detachment caused by gliotoxin: with 1.5 μmol/L gliotoxin, Z-VAD-FMK 100 μmol/L, PDTC 300 μmol/L, tamoxifen 100 μmol/L, m-IBG 250 (mmol/L in the source), quin-2-am 50 μmol/L
Description: Rat hepatic stellate cells (HSCs) were isolated by pronase/collagenase perfusion and purified by isopycnic density centrifugation in Opti-prep™ (Nycomed, Amersham, England) and elutriation essentially as previously described (Bahr et al., Hepatology (1999) 29:839-848). Human hepatic stellate cells were isolated from discarded resected liver via a similar protocol (Trim et al., J. Biol. Chem., (2000) 275:6657-6663). The use of human liver tissue for scientific investigation was approved by the UK South and West Local Research Ethics Committee and was subject to patient consent.
It has been shown recently that liver myofibroblasts may contribute to liver fibrogenesis and that liver myofibroblasts may have the potential to contaminate passaged hepatic stellate cell cultures (Knittel et al., Gastronenterology, (1999) 117:1205-1221). In this study, only primary cultures of hepatic stellate cells were used, which were desmin and glial fibrillary acid protein positive (markers shown to be expressed in hepatic stellate cells, but not liver myofibroblasts—Knittel et al., supra).
(§1) Cells were treated with gliotoxin dissolved in DMSO vehicle (added to medium from a 2000-fold molar concentrated stock). Control cells received DMSO vehicle only (i.e., 0.05% vol/vol). All other additions to culture medium were made from concentrated stocks dissolved in DMSO or by direct addition to culture medium. Protein contents of wells were determined using the Lowry assay (Lowry et al., J. Biol. Chem., (1951)193: 265-275).
Culture activated rat (14 day) and human (24 day) hepatic stellate cells were treated with DMSO solvent control or 1.5 μMol/L gliotoxin. […] Hepatic stellate cells changed from a flattened fibroblastic phenotype with distinct cell-cell interfaces to a substratum detached, rounded, and blebbed morphology.

[3] = test system: rat hepatic stellate cells; test: Low molecular weight DNA fragmentation (nucleosomal ladder) in rat hepatic stellate cells; conditions: four hours; for effect on gliotoxin-induced cleavage of DNA to a nucleosomal ladder: with 1.5 μmol/L gliotoxin, PDTC 300 μmol/L, tamoxifen 100 μmol/L, m-IBG 250 (mmol/L in the source), cyclosporin 10 μmol/L, quin-2-am 50 μmol/L
Method: (§2) Hepatic stellate cells cultured in 35-mm diameter dishes (Greiner) were harvested, pelleted by centrifugation and DNA fragmentation determined as outlined elsewhere (Elsharkawy et al., Hepatology (1999) 30:761-769). Propidium Iodide Flow-Activated Cell Sorting Analysis Detached cells were pelleted by centrifugation, washed in PBS, and resuspended in HYPO buffer (0.1% wt/vol) Na3Citrate and 0.1% (wt/vol) Triton™ X-100 containing […] propidium iodide and incubated for 1 hour. The cells were then analyzed by fluorescence-activated cell sorter (FACS) with a Becton Dickinson (San Jose, Calif.) FACScan instrument using a 488 nm excitation wavelength with a band pass filter set at 530 nm. Attached cells were scraped in HYPO buffer after washing cells with PBS.
The effect of gliotoxin on the cleavage of DNA to a nucleosomal ladder was examined because this phenomenon is characteristic of apoptosis. Culture activated (14-day) rat hepatic stellate cells in six well plates were treated with either 0.05% (vol/vol) DMSO for four hours or 1.5 μmol/L gliotoxin for zero hours, half an hour, one hour, two hours or four hours. At each time point, both detached and attached cells were harvested together and low molecular weight DNA (20,000 g supernatant) fragmentation determined as outlined in the materials and methods section. At least three separate experiments were performed. 1 kilobase DNA ladder (Promega) was used as a molecular weight marker.
The effect of various compounds on DNA laddering was then determined. Culture-activated (14-day) rat hepatic stellate cells in six-well plates were treated with:
After fours hours of treatment, DNA fragmentation was determined.
Culture activated (14 day) rat hepatic stellate cells in six well plates were treated with: • (a) 0.05% (vol/vol) DMSO; • (b) 1.5 μmol/L gliotoxin; • (c) 1.5 μmol/L gliotoxin with 100 μmol/L tamoxifen; • (d) 1.5 μmol/L gliotoxin with […] actinomycin d; • (e) 1.5 μmol/L gliotoxin with 10 μmol/L cycloheximide; • (f) 1.5 μmol/L gliotoxin with 10 μmol/L cyclosporin; • (g) 1.5 μmol/L gliotoxin with […] m-iodobenzylguanidine; • (h) 1.5 μmol/L gliotoxin with 50 μmol/L quin-2-am; • (i) 50 μmol/L guin-2-am alone; • (j) 250 μmol/L m-iodobenzylguanidine; • (k) 10 μmol/L cyclosporin; • (l) 10 μmol/L cycloheximide; • (m) 1 μg/ml actinomycin d; or • (n) 100 μmol/L tamoxifen.
After four hours of treatment, DNA fragmentation was determined as outlined in Materials and Methods.

[4] = test system: caspase 3 activity in rat hepatic stellate cells; test: Caspase 3 (Ac-DEVD-pNA cleavage) activity in rat hepatic stellate cells; conditions: 20 μmol/L Z-VAD-FMK with 1.5 μmol/L gliotoxin, three hours
Method: Hepatic stellate cells cultured in 100 mm diameter dishes (Greiner, Frickenhausen, Germany) were harvested and pelleted by centrifugation. The medium supernatant was discarded and the cell pellet was washed in 1 mL of ice-cooled phosphate buffered saline (PBS). Caspase 3 (DEVDase) activity was determined using a colorimetric CaspACE kit (Promega, Southampton, England) using the manufacturer's instructions.
Caspase 3 (Ac-DEVD-pNA cleavage) activity was then examined in control and gliotoxin-treated hepatic stellate cells. Culture activated rat hepatic stellate cells (14 days) in 100 mm diameter plates were treated with 0.05% (vol/vol) DMSO, 1.5 μmol/L gliotoxin, 20 μmol/L Z-VAD-FMK or 200 μmol/L chlorpromazine for three hours. The cells were then harvested for examination of caspase 3 activity as outlined in the materials and methods sections.

rat hepatocytes [5] = test: DNA laddering in rat hepatocytes; conditions: four hours; 50 μmol/L gliotoxin, 200 μmol/L chlorpromazine, 200 μmol/L methapyrilene, 10 ng/mL TNF-α with cycloheximide
Method: as §2
DNA laddering was also used to compare the effect of gliotoxin, chlorpromazine, methapyrilene and also the combination of TNF-α with cycloheximide on hepatocytes and hepatic stellate cells.

rat hepatocytes [6] = test: Rat hepatocyte viability by attachment and trypan blue exclusion; conditions: 200 μmol/L, four hours
Method: Rat hepatocytes were isolated by collagenase perfusion essentially as previously described. (Harvey et al., Biochemical J., (1998) 331:273-281). Hepatocytes were cultured as outlined for hepatic stellate cells except that they were initially seeded onto collagen coated plates in William's medium E supplemented with 10% fetal calf serum and 1 μg/mL insulin for the first 2 hours.
as §1
The effect of various compounds on cell viability and attachment was determined. Viability of rat hepatocytes as judged by attachment and 0.1% (wt/vol) trypan blue exclusion after four hours treatment with: […]

| Structure (SMILES) | TNF-α-inducible NF-kB DNA binding activity [1] | constitutive NF-kB DNA binding activity [1] | effect on morphologic alterations / detachment caused by gliotoxin [2] | effect on gliotoxin-induced cleavage of DNA to a nucleosomal ladder [3] | further results |
| --- | --- | --- | --- | --- | --- |
| CCCC[C@@H](C=O)NC(=O)[C@H](CC(C)C)NC(=O)[C@H](CC(C)C)NC(C)=O [Calpain inhibitor 1] (Ac-Leu-Leu-[Nle]-aldehyde) | inhibited the formation and altered the mobilities | inhibited the formation and altered the mobilities | – | – | apoptosis judged by morphologic and biochemical criteria (caspase 3 induction, nucleosomal ladder) ([2]; 50 μM calpain inhibitor 1): did not result in the apoptosis of rat hepatic stellate cells |
| CC(=O)N[C@@H](CS)C(=O)O [N-acetyl cysteine] | little effect | little effect | – | – | – |
| COC(=O)C[C@H](NC(=O)[C@H](C)NC(=O)[C@@H](NC(=O)OCc1ccccc1)C(C)C)C(=O)CF [Z-VAD-FMK, benzyloxycarbonyl-Val-Ala-Asp-fluoromethylketone] (Cbz-Val-Ala-Asp(OMe)-CH2F) | – | – | did not prevent the morphologic alterations caused by gliotoxin | – | inhibition of gliotoxin-induced nucleosomal ladder ([3]; Z-VAD-FMK 1 μmol/L with 1.5 μmol/L gliotoxin): substantial inhibition; inhibition of gliotoxin-induced nucleosomal ladder ([3]; Z-VAD-FMK 100 and 10 (m/L printed) with 1.5 μmol/L gliotoxin): inhibited completely; effect on gliotoxin-induced caspase 3 activity [4]: inhibited by cotreatment |
| N=C(N)NCc1cccc(I)c1 [m-iodobenzylguanidine] | – | – | did not prevent the detachment of hepatic stellate cells from the substratum | prevented the cleavage of DNA to a nucleosomal ladder | – |
| CN(C)CCN(Cc1cccs1)c1ccccn1 [methapyrilene] | – | – | – | – | cleavage of hepatocyte DNA to a nucleosomal ladder (rat hepatocytes [5]): only hepatocytes treated with TNF-α and cycloheximide cleaved their DNA to a nucleosomal ladder; hepatocytes that do not exclude trypan blue, compared with 50 μmol/L gliotoxin (rat hepatocytes [6]): a level similar |
| CC(=O)CCCCn1c(=O)c2c(ncn2C)n(C)c1=O [pentoxyfilline] | little effect | little effect | – | – | – |
| COc1cc(N(CC(=O)OCOC(C)=O)CC(=O)OCOC(C)=O)c2nc(COc3cc(C)ccc3N(CC(=O)OCOC(C)=O)CC(=O)OCOC(C)=O)ccc2c1 [quin-2AM] | – | – | without preventing cell detachment | blocks DNA cleavage | – |
| CC/C(=C(\c1ccccc1)c1ccc(OCCN(C)C)cc1)c1ccccc1 [tamoxifen] | – | – | did not prevent the detachment of hepatic stellate cells from the substratum | prevented the cleavage of DNA to a nucleosomal ladder | – |
